One experiment addresses CK1ε (Homo sapiens, UniProt P49674). As to the kind of experiment: CK1ε kinase assay (Caliper LabChip electrophoretic separation of fluoresceinated peptide substrate and product). The class given is biochemical. To be noted: 200 pM CK1ε, 50 μM ATP, 1.5 μM peptide, 22 hours at room temperature; read-out: CK1ε IC50 range. The gist of the method:
(§1)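 Compounds, taken from 10 mM DMSO stocks, are titrated at eleven concentrations. Kinase reactions proceed for 22 hours at room temperature and are quenched with EDTA. Substrate and product are resolved electrophoretically, and IC50 values are fitted by non-linear regression.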

In a further experiment the target is CK1δ (Homo sapiens, UniProt P48730). The experiment can be described thus: CK1δ kinase assay (Caliper LabChip electrophoretic separation of fluoresceinated peptide substrate and product). The class given is biochemical. To be noted: 200 pM CK1δ, 50 μM ATP, 1.5 μM peptide, 22 hours at room temperature; read-out: CK1δ IC50 range. The gist of the method:
as §1

Chain of CK1ε (P49674 whole entry): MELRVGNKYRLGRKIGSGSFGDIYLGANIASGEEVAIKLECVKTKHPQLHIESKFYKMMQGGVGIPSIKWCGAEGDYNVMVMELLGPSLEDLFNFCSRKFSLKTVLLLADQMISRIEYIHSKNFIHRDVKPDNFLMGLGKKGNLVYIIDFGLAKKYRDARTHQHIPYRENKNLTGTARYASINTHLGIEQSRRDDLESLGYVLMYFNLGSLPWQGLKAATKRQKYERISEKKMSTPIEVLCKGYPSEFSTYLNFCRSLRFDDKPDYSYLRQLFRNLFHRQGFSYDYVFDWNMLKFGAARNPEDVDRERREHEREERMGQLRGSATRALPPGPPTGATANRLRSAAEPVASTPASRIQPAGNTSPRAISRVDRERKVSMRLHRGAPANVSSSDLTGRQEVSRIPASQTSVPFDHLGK
Chain of CK1δ (P48730 whole entry): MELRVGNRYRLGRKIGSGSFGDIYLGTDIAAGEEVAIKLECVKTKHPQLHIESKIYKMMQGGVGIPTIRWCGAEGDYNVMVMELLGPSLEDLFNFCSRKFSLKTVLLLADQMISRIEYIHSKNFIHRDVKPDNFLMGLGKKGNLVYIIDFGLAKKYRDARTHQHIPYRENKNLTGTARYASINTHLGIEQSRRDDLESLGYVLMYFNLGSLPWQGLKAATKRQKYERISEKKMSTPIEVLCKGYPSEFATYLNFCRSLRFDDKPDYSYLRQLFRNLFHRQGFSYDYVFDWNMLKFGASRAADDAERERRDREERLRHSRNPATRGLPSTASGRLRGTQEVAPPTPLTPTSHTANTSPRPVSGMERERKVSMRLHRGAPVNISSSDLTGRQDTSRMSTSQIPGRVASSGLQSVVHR

For orientation: IC50 means the point on the concentration scale where inhibition reaches its midpoint. Turning to `N#CCC1(NC(=O)N2CCn3nc(-c4ccc(Cl)c(Cl)c4)c(C(N)=O)c3C2)CCC1` [Compound 222, N^5-(1-(Cyanomethyl)cyclobutyl)-2-(3,4-dichlorophenyl)-6,7-dihydropyrazolo[1,5-a] pyrazine-3,5(4H)-dicarboxamide], the IC50 at CK1ε and at CK1δ was 0.01 to 10 nM each time.
With `NC(=O)c1c(-c2ccc(Cl)c(Cl)c2)nn2c1CN(C(=O)NC1(COC(F)F)CCC1)CC2` [Compound 224, 2-(3,4-Dichlorophenyl)-N^5-(1-((difluoromethoxy)methyl)cyclobutyl)-6,7-dihydropyrazolo[1,5-a] pyrazine-3,5(4H)-dicarboxamide], the IC50 at CK1ε and on CK1δ was 0.01 to 10 nM in each case.
Turning to `NC(=O)c1c(-c2cccc(Cl)c2)nn2c1CN(C(=O)NC1(COC(F)F)CCC1)CC2` [Compound 225, 2-(3-Chlorophenyl)-N^5-(1-((difluoromethoxy)methyl)cyclobutyl)-6,7-dihydropyrazolo[1,5-a] pyrazine-3,5(4H)-dicarboxamide], the IC50 on CK1ε and on CK1δ was 0.01 to 10 nM throughout.
As to `CC(C)(NC(=O)N1CCn2nc(-c3ccc(F)c(Cl)c3)c(C(N)=O)c2C1)C1CC(F)(F)C1` [Compound 226, 2-(3-Chloro-4-fluorophenyl)-N^5-(2-(3,3-difluorocyclobutyl)propan-2-yl)-6,7-dihydropyrazolo[1,5-a]pyrazine-3,5(4H)-dicarboxamide], the IC50 on CK1ε and on CK1δ was 0.01 to 10 nM throughout.
As to `CC(C)(NC(=O)N1CCn2nc(-c3cccc(Cl)c3)c(C(N)=O)c2C1)C1CC(F)(F)C1` [Compound 227, 2-(3-Chlorophenyl)-N^5-(2-(3,3-difluorocyclobutyl)propan-2-yl)-6,7-dihydropyrazolo[1,5-a] pyrazine-3,5(4H)-dicarboxamide], the IC50 at CK1ε and on CK1δ was 0.01 to 10 nM in each case.
With `CC1(CNC(=O)N2CCn3nc(-c4ccc(F)c(Cl)c4)c(C(N)=O)c3C2)CC(F)(F)C1` [Compound 229, 2-(3-Chloro-4-fluorophenyl)-N^5-((3,3-difluoro-1-methylcyclobutyl)methyl)-6,7-dihydropyrazolo[1,5-a]pyrazine-3,5(4H)-dicarboxamide], the IC50 on CK1ε and at CK1δ was 0.01 to 10 nM each time.
Take `CC1(CNC(=O)N2CCn3nc(-c4cccc(Cl)c4)c(C(N)=O)c3C2)CC(F)(F)C1` [Compound 230, 2-(3-Chlorophenyl)-N^5-((3,3-difluoro-1-methylcyclobutyl)methyl)-6,7-dihydropyrazolo[1,5-a] pyrazine-3,5(4H)-dicarboxamide]: the half-maximal inhibitory concentration (IC50) on CK1ε and at CK1δ was 0.01 to 10 nM throughout.
Regarding `CC(C)(NC(=O)N1CCn2nc(-c3ccc(F)c(Cl)c3)c(C(N)=O)c2C1)C1CCC(F)(F)CC1` [Compound 232, 2-(3-Chloro-4-fluorophenyl)-N^5-(2-(4,4-difluorocyclohexyl)propan-2-yl)-6,7-dihydropyrazolo[1,5-a]pyrazine-3,5(4H)-dicarboxamide], the IC50 at CK1ε and on CK1δ was 0.01 to 10 nM in each case.
Consider `CC(C)(NC(=O)N1CCn2nc(-c3cccc(Cl)c3)c(C(N)=O)c2C1)C1CCC(F)(F)CC1` [Compound 233, 2-(3-Chlorophenyl)-N^5-(2-(4,4-difluorocyclohexyl)propan-2-yl)-6,7-dihydropyrazolo[1,5-a] pyrazine-3,5(4H)-dicarboxamide], for which the IC50 on CK1ε and on CK1δ was 0.01 to 10 nM throughout.
For the compound `CC(C)(NC(=O)N1CCn2nc(-c3ccc(Cl)c(Cl)c3)c(C(N)=O)c2C1)C1CCC(F)(F)CC1` [Compound 234, 2-(3,4-Dichlorophenyl)-N^5-(2-(4,4-difluorocyclohexyl)propan-2-yl)-6,7-dihydropyrazolo[1,5-a] pyrazine-3,5(4H)-dicarboxamide], the IC50 on CK1ε and on CK1δ was 0.01 to 10 nM in each case.
With `NC(=O)c1c(-c2ccc(F)c(Cl)c2)nn2c1CN(C(=O)NC1(C(F)F)CCC1)CC2` [Compound 235, 2-(3-Chloro-4-fluorophenyl)-N^5-(1-(difluoromethyl)cyclobutyl)-6,7-dihydro pyrazolo[1,5-a]pyrazine-3,5(4H)-dicarboxamide], the IC50 at CK1ε and at CK1δ was 0.01 to 10 nM in each case.
On to `NC(=O)c1c(-c2cccc(Cl)c2)nn2c1CN(C(=O)NC1(C(F)F)CCC1)CC2` [Compound 236, 2-(3-Chlorophenyl)-N^5-(1-(difluoromethyl)cyclobutyl)-6,7-dihydropyrazolo[1,5-a] pyrazine-3,5(4H)-dicarboxamide], for which the half-maximal inhibitory concentration (IC50) at CK1ε and on CK1δ was 0.01 to 10 nM in each case.
Turning to `NC(=O)c1c(-c2ccc(Cl)c(Cl)c2)nn2c1CN(C(=O)NC1(C(F)F)CCC1)CC2` [Compound 237, 2-(3,4-Dichlorophenyl)-N^5-(1-(difluoromethyl)cyclobutyl)-6,7-dihydropyrazolo[1,5-a] pyrazine-3,5(4H)-dicarboxamide], the 50% inhibitory concentration (IC50) at CK1ε and at CK1δ was 0.01 to 10 nM each time.
Turning to `NC(=O)c1c(-c2cccc(Cl)c2)nn2c1CN(C(=O)N[C@@H]1CC[C@@H]1C(F)F)CC2` [Compound 239, 2-(3-Chlorophenyl)-N^5-((1R,2S)-2-(difluoromethyl)cyclobutyl)-6,7-dihydropyrazolo[1,5-a] pyrazine-3,5(4H)-dicarboxamide], the half-inhibitory concentration (IC50) on CK1ε and at CK1δ was 0.01 to 10 nM each time.
With `NC(=O)c1c(-c2ccc(F)c(Cl)c2)nn2c1CN(C(=O)N[C@@H]1CC[C@H]1COC(F)F)CC2` [Compound 241, 2-(3-Chloro-4-fluorophenyl)-N^5-((1R,2R)-2-((difluoromethoxy)methyl)cyclobutyl)-6,7-dihydropyrazolo[1,5-a]pyrazine-3,5(4H)-dicarboxamide], the IC50 at CK1ε and at CK1δ was 0.01 to 10 nM each time.
For `NC(=O)c1c(-c2ccc(Cl)c(Cl)c2)nn2c1CN(C(=O)N[C@@H]1CC[C@H]1COC(F)F)CC2` [Compound 243, 2-(3,4-Dichlorophenyl)-N^5-((1R,2R)-2-((difluoromethoxy)methyl)cyclobutyl)-6,7-dihydropyrazolo[1,5-a] pyrazine-3,5(4H)-dicarboxamide], the IC50 at CK1ε and on CK1δ was 0.01 to 10 nM in each case.
`NC(=O)c1c(-c2ccc(Cl)c(Cl)c2)nn2c1CN(C(=O)NC1CC(C(F)F)C1)CC2` (centres unmarked) [Compound 254, 2-(3,4-Dichlorophenyl)-N^5-(3-(difluoromethyl)cyclobutyl)-6,7-dihydropyrazolo[1,5-a]pyrazine-3,5(4H)-dicarboxamide]: the IC50 at CK1ε and on CK1δ was 0.01 to 10 nM throughout.
On to `NC(=O)c1c(-c2ccc(Cl)c(Cl)c2)nn2c1CN(C(=O)NC1CC(C(F)F)C1)CC2` (centres unmarked) [Compound 255, 2-(3,4-Dichlorophenyl)-N^5-(3-(difluoromethyl)cyclobutyl)-6,7-dihydropyrazolo[1,5-a]pyrazine-3,5(4H)-dicarboxamide], for which the concentration for half-maximal inhibition (IC50) on CK1ε and at CK1δ was 0.01 to 10 nM in each case.
For the compound `CC1(NC(=O)N2CCn3nc(-c4ccc(F)c(Cl)c4)c(C(N)=O)c3C2)CC(O)C1` (centres unmarked) [Compound 260, 2-(3-Chloro-4-fluorophenyl)-N^5-(3-hydroxy-1-methylcyclobutyl)-6,7-dihydropyrazolo[1,5-a]pyrazine-3,5(4H)-dicarboxamide], the concentration for half-maximal inhibition (IC50) on CK1ε and at CK1δ was 0.01 to 10 nM throughout.
Turning to `NC(=O)c1c(-c2ccc(F)c(Cl)c2)nn2c1CN(C(=O)N[C@H]1C[C@@H](OC(F)(F)F)C1)CC2` [Compound 261, 2-(3-Chloro-4-fluorophenyl)-N^5-((1r,3r)-3-(trifluoromethoxy)cyclobutyl)-6,7-dihydropyrazolo[1,5-a]pyrazine-3,5(4H)-dicarboxamide], the IC50 at CK1ε and at CK1δ was 0.01 to 10 nM in each case.
Take `NC(=O)c1c(-c2cccc(Cl)c2)nn2c1CN(C(=O)N[C@H]1C[C@@H](OC(F)(F)F)C1)CC2` [Compound 262, 2-(3-Chlorophenyl)-N^5-((1r,3r)-3-(trifluoromethoxy)cyclobutyl)-6,7-dihydropyrazolo[1,5-a] pyrazine-3,5(4H)-dicarboxamide]: the IC50 on CK1ε and on CK1δ was 0.01 to 10 nM each time.
With `NC(=O)c1c(-c2ccc(Cl)c(Cl)c2)nn2c1CN(C(=O)N[C@H]1C[C@@H](OC(F)(F)F)C1)CC2` [Compound 263, 2-(3,4-Dichlorophenyl)-N^5-((1r,3r)-3-(trifluoromethoxy)cyclobutyl)-6,7-dihydropyrazolo[1,5-a] pyrazine-3,5(4H)-dicarboxamide], the IC50 at CK1ε and on CK1δ was 0.01 to 10 nM throughout.
For `NC(=O)c1c(-c2ccc(F)c(Cl)c2)nn2c1CN(C(=O)N[C@H]1C[C@H](OC(F)(F)F)C1)CC2` [Compound 264, 2-(3-Chloro-4-fluorophenyl)-N^5-((1r,3r)-3-(trifluoromethoxy)cyclobutyl)-6,7-dihydropyrazolo[1,5-a]pyrazine-3,5(4H)-dicarboxamide], the concentration for half-maximal inhibition (IC50) at CK1ε and at CK1δ was 0.01 to 10 nM in each case.
Take `N#Cc1ccc(O[C@H]2C[C@H](NC(=O)N3CCn4nc(-c5ccc(F)c(Cl)c5)c(C(N)=O)c4C3)C2)cc1` [Compound 266, 2-(3-Chloro-4-fluorophenyl)-N^5-((1r,3r)-3-(4-cyanophenoxyl)cyclobutyl)-6,7-dihydropyrazolo[1,5-a]pyrazine-3,5(4H)-dicarboxamide]: the IC50 on CK1ε and on CK1δ was 0.01 to 10 nM throughout.
On to `N#Cc1ccc(O[C@H]2C[C@H](NC(=O)N3CCn4nc(-c5cccc(Cl)c5)c(C(N)=O)c4C3)C2)cc1` [Compound 267, 2-(3-Chlorophenyl)-N^5-((1r,3r)-3-(4-cyanophenoxy)cyclobutyl)-6,7-dihydropyrazolo[1,5-a] pyrazine-3,5(4H)-dicarboxamide], for which the half-maximal inhibitory concentration (IC50) on CK1ε and at CK1δ was 0.01 to 10 nM in each case.

The values above are taken from patent US9273058B2 (BRISTOL-MYERS SQUIBB COMPANY, priority 2013, dated 2016).
